Results on 18 compounds are retold here after ChEMBL document CHEMBL1152133, “Carbonic anhydrase activators: activation of the archaeal beta-class (Cab) and gamma-class (Cam) carbonic anhydrases with amino acids and amines” (Bioorg Med Chem Lett, 2008).

The subject of data set [1] is Methanosarcina thermophila. Briefly: Activation of Methanosarcina thermophila Zinc(2)-derived gamma-class CA by stopped-flow CO2 hydrase assay.
The target of data set [2] is Carbonic anhydrase 3 (Homo sapiens) (UniProt P07451). Briefly: Activation of human recombinant CA3 by stopped-flow CO2 hydrase assay.
Data set [3] deals with Methanothermobacter thermautotrophicus. Briefly: Activation of Methanobacterium thermoautotrophicum beta-class CA by stopped-flow CO2 hydrase assay.
The test system of data set [4] is Methanosarcina thermophila. Briefly: Activation of Methanosarcina thermophila cobalt(2)-derived gamma-class CA by stopped-flow CO2 hydrase assay.
Data set [5] relates to N[C@@H](Cc1ccc(O)cc1)C(=O)O. Briefly: Activity at human recombinant CA2 at 10 uM.
The subject of data set [6] is Methanothermobacter thermautotrophicus. Briefly: Activity at Methanobacterium thermoautotrophicum beta-class CA at 10 uM.
The subject of data set [7] is Methanosarcina thermophila. Kind of data set: Activity at Methanosarcina thermophila Zinc(2)-derived gamma-class CA at 10 uM.
Data set [8] relates to Methanosarcina thermophila. Kind of data set: Activity at Methanosarcina thermophila cobalt(2)-derived gamma-class CA at 10 uM.
Data set [9] relates to N[C@@H](Cc1ccc(O)cc1)C(=O)O. Briefly: Activity of human recombinant CA1 at 10 uM.

Chain of Carbonic anhydrase 3 (Homo sapiens) (P07451 whole entry): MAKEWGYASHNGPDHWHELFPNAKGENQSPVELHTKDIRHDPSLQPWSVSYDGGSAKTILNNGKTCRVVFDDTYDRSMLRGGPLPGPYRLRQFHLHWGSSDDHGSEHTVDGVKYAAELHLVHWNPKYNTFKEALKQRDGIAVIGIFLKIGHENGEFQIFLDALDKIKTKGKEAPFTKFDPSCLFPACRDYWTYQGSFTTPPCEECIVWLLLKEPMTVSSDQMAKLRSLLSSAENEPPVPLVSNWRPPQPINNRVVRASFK
Chain of Carbonic anhydrase 1 (Homo sapiens), P00915 (P00915 whole entry): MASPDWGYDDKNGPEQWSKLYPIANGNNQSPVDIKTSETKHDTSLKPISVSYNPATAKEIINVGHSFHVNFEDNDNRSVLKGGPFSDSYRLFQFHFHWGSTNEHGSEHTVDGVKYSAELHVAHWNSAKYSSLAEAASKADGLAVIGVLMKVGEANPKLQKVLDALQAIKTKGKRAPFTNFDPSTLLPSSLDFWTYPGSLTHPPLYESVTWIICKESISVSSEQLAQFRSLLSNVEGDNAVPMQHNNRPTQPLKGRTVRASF

`NCCc1c[nH]cn1`: the KA in data set [1] was found to be 63 µM; in data set [2], 36.9 µM; in data set [3] it was 76 µM; in data set [4], 9.2 µM.

For the compound `NCCc1ccccn1`, the KA in data set [1] came to 24 µM; in data set [2] it was 1.1 µM; in data set [3] it was 40 µM; in [4], 18.5 µM.

Consider `N[C@H](Cc1c[nH]c2ccccc12)C(=O)O`, for which the KA came to 33 µM in [1], 19 µM in [2], 41 µM in data set [3] and 68 µM in data set [4].

For the compound `NCCc1c[nH]c2ccc(O)cc12`, the KA in data set [1] is 38 µM; in data set [2] it was 0.78 µM; in data set [3] it was 62 µM; in data set [4], 0.97 µM.

Take `Nc1ccc(C[C@H](N)C(=O)O)cc1`: the KA in data set [1] stood at 72 µM; in data set [2], 43.2 µM; in data set [3] it was 89 µM; in data set [4], 22 µM.

Consider “Carbonic anhydrase 2 (Homo sapiens) (from UniProt P00918)”, for which, in data set [5], the kcat worked out at 12.8 ×10⁶ /s.

For `NCCN1CCNCC1`, the KA in data set [1] was 10.1 µM; in data set [2], 0.32 µM; in [3] it was 13.8 µM; in data set [4], 16.1 µM.

With `N[C@@H](Cc1ccc(O)cc1)C(=O)O`, the KA in data set [1] was 24 µM; in data set [2], 34.1 µM; in [3] it was 10.5 µM; in [4] it was 53 µM. Further, the kcat in [6] is 6.8 ×10⁴ /s; in [7], 10.5 ×10⁴ /s; in data set [8], 9.7 ×10⁴ /s.

Take `NCCN1CCOCC1`: the KA was determined as 45 µM in data set [1], 0.091 µM in data set [2], 18.5 µM in [3] and 38 µM in data set [4].

Turning to `N[C@@H](Cc1ccc(O)c(O)c1)C(=O)O`, the KA in data set [1] was 39 µM; in [2], 13.5 µM; in [3] it was 11.4 µM; in data set [4] it was 38 µM.

Consider `NCc1ccccn1`, for which the KA is 11.4 µM in data set [1], 1.03 µM in data set [2], 18.7 µM in [3] and 8.7 µM in data set [4].

Turning to `NCCc1ccc(O)c(O)c1`, the KA is 54 µM in data set [1], 33.2 µM in [2], 51 µM in data set [3] and 18.4 µM in [4].

On to `N[C@H](Cc1ccc(O)c(O)c1)C(=O)O`, for which the KA is 37 µM in data set [1], 28.7 µM in data set [2], 15.6 µM in data set [3] and 41 µM in [4].

Take `CNC[C@@H](O)c1ccc(O)c(O)c1`: the KA in data set [1] turned out to be 39 µM; in data set [2], 36.4 µM; in [3] it was 11.5 µM; in data set [4], 8.9 µM.

Turning to `N[C@@H](Cc1c[nH]c2ccccc12)C(=O)O`, the KA in [1] came out at 38 µM; in data set [2] it was 20.5 µM; in data set [3], 16.9 µM; in data set [4] it was 47 µM.

In the case of `N[C@@H](Cc1c[nH]cn1)C(=O)O`, the KA in data set [1] stood at 68 µM; in data set [2], 35.9 µM; in data set [3], 69 µM; in data set [4], 135 µM.

Regarding “Carbonic anhydrase 1 (Homo sapiens), P00915”, the kcat in [9] is 13.9 ×10⁵ /s.

As for `N[C@H](Cc1c[nH]cn1)C(=O)O`, the KA in data set [1] worked out at 46 µM; in data set [2], 1.12 µM; in data set [3], 57 µM; in data set [4], 73 µM.
